Patent US11191746B2, “Composition for inhibiting a growth of cancer stem cells comprising ciclesonide” (JEJU NATIONAL UNIVERSITY INDUSTRY-ACADEMIC COOPERATION …, priority 2016, dated 2021)

Legend:
Assay type in all cases: cell-based, human
A549 cells [1] = assay: Apoptosis analysis by fluorescence staining (Hoechst 33258); details: A549, 30 μM, 24 hours
Description: (§1) MDA-MB-231 cells were treated with 20 μM ciclesonide or A549 cells were treated with 30 μM ciclesonide, for 24 hours and the cells were incubated in 10 mg/ml of a Hoechst 33258 solution at 37° C. for 30 minutes. Subsequently, the cells were observed using a fluorescence microscope.

MDA-MB-231 cells [2] = assay: as above; details: MDA-MB-231, 20 μM, 24 hours
Description: as §1

A549 cells [3] = assay: Scratch migration analysis; details: A549, wound healing at 18 hours
Description: (§2) MDA-MB-231 cells or A549 cells were inoculated into a 6-well plate and grown to 90% confluency. A scratch was made on the cell layer using a sterile white micropipette tip. After washing with DMEM medium, the breast cancer cells or lung cancer cells were treated with ciclesonide or DMSO. At 18 hours, wounded areas were photographed using an optical microscope at a magnification of ×40.

MDA-MB-231 cells [4] = assay: Scratch migration analysis; details: MDA-MB-231, wound healing at 18 hours
Description: as §2

A549 cells [5] = assay: Clonogenic assay; details: A549, 10 μM
Description: (§3) MDA-MB-231 cells or A549 cells were inoculated at low density in a 6-well plate, and, in a DMEM medium, the MDA-MB-231 cells were treated with different concentrations of ciclesonide, or the A549 cells were treated with 10 μM ciclesonide. After 24 hours, the medium was replaced with a new medium and cultured for […] to allow the cells to grow. The grown colonies were counted.

MDA-MB-231 cells [6] = assay: Clonogenic assay
Description: as §3

mammospheres = assay: Mammosphere proliferation (cell counting); details: mammospheres treated 2 days, single cells replated and counted
Description: (§4) FIG. 6B illustrates the effect of ciclesonide on mammosphere growth wherein ciclesonide inhibits the growth of mammospheres, mammospheres having been treated with ciclesonide or DMSO for 2 days were separated into single cells and plated in 6 cm dishes at the same density. 24 hours after plating, the cells were counted, on days 2 and 3, the cells were counted three times, and plotted as mean values, and the data was expressed as the mean±SD for the three independent experimental results. *p<0.05 vs. DMSO-treated control.

A549 cells [7] = assay: Lung cancer cell proliferation assay (MTS); details: A549, 48 hours after treatment
Description: The proliferation rates of MCF-7 cells and MDA-MB-231 cells were measured using a CellTiter 96® aqueous one solution cell proliferation kit. The MCF-7 cells or the MDA-MB-231 cells were cultured in a 96-well plate for 48 hours in the presence of ciclesonide at concentrations of 0 μM, 5 μM, 10 μM, 20 μM, 40 μM, and 80 μM. In accordance with the manufacturer's protocol, absorbance at 490 nm was determined using a 96-well plate reader (Dynex Revelation, Dynex Ltd., Billingshurst, UK). Respective data was determined by measuring three sets.
An experiment was performed in the same manner as in Example 10-1, except that A549 cells were used as lung cancer cells and treated with ciclesonide at concentrations of 0 μM, 10 μM, 20 μM, 40 μM, 80 μM, and 100 μM.

[8] = tested on: A549 cell-derived tumorspheres; assay: Tumorsphere formation; details: A549 primary tumorspheres
Description: Human lung cancer cells, A549, were cultured under the same culture conditions as those for the breast cancer cells of Example 2-1. To establish primary tumorspheres, single cell-suspended A549 cells were inoculated into ultra-low attachment 6-well plates containing 2 ml of Cancer Stem Premium medium (ProMab Biotechnologies Inc, Richmond, Calif., USA) at a density of 5×10^4 cells/well. The cells were incubated in a 5% CO2 incubator at 37° C. for 10 days.
Lung cancer tumorspheres were counted in the same manner as in Example 3-1, and for the analysis of tumorsphere formation, tumorsphere formation efficiency (TFE, %) was determined by the following equation: TFE (%)=number of tumorspheres per well/total number of plated cells per well×100.

A549 cells [9] = assay: ALDEFLUOR analysis, lung cancer cells; details: 24 hours
Description: An ALDEFLUOR analysis system provides a novel approach to the identification, evaluation, and isolation of CSCs based on the activity of aldehyde dehydrogenase (ALDH). BODIPY-aminoacetaldehyde as an active reagent was added to breast cancer cells or lung cancer cells, and converted into fluorescent BODIPY-aminoacetate by ALDH. Diethylaminobenzaldehyde (DEAB), which is an ALDH inhibitor, was used as a negative control. MCF-7 cells or A549 cells were treated with 10 μM or 20 μM ciclesonide for 24 hours, and the proportion of ALDH-positive cells was analyzed by ALDEFLUOR assay. ALDH-positive and negative cells were sorted by C6 Accuri flow cytometry (BD Bioscience).

C-myc = assay: Real-time PCR of CSC markers in tumorspheres; details: RT-PCR, vs group not treated
Description: (§5) The levels of transcripts were measured with a One Step SYBR PrimeScript RT-PCR kit (Takara, Tokyo, Japan) using SYBR green as a double-stranded DNA-specific dye in accordance with the manufacturer's protocol. One-step RT-PCR was performed on 1 μg of total RNA, 10 μl of 2× One Step SYBR RT-PCR Buffer IV, and 1 μl of PrimeScript 1 step Enzyme Mix II using PCR forward and reverse primers of each of CD44, NANOG, OCT4, C-myc, Sox2, Snail, and β-actin at a final volume of 20 μl per reaction.
(§6) The relative expression level of mRNA of the target gene was calculated using a comparative CT method. At least three independent PCR procedures were performed in accordance with statistical analysis. PCR products were normalized with the […] gene as an internal control.

Nanog = assay: Real-time PCR of CSC markers in tumorspheres; details: RT-PCR, vs group not treated
Description: as §5, §6

Snail = assay: Real-time PCR of CSC markers in tumorspheres; details: RT-PCR, vs group not treated
Description: as §5, §6

Sox2 = assay: Real-time PCR of CSC markers in tumorspheres; details: RT-PCR, vs group not treated
Description: as §5, §6

tumorspheres = assay: Tumorsphere proliferation (cell counting); details: tumorspheres treated 2 days, single cells replated and counted on days 1 to 3
Description: as §4, with “FIG. 11B” for “FIG. 6B”, “on tumorsphere formation” for “on mammosphere growth”, “of tumorspheres, tumorspheres” for “of mammospheres, mammospheres”, “same density,” for “same density.”, “days 1, 2,” for “days 2”, “DMSO-treated control; and […]” for “DMSO-treated control.”

With `CC(C)C(=O)OCC(=O)[C@@]12O[C@H](C3CCCCC3)O[C@@H]1C[C@H]1[C@@H]3CCC4=CC(=O)C=C[C@]4(C)[C@H]3[C@@H](O)C[C@@]12C` [ciclesonide] the “formation of apoptotic bodies” value (A549 cells [1]) was “apoptotic bodies were formed”, the “formation of apoptotic bodies” value (MDA-MB-231 cells [2]) was “apoptotic bodies were formed” and the migration (A549 cells [3]) was “inhibited”. For the same compound, the migration (MDA-MB-231 cells [4]) was “inhibited”, the colony formation (A549 cells [5]) was “inhibited” and the colony formation (MDA-MB-231 cells [6]) was “inhibited”. For the same compound, the proliferation of mammospheres (mammospheres) was “significantly reduced”, the “concentration at which growth of the cell line was inhibited in a concentration-dependent manner” value (A549 cells [7]) was ≥ 40 µM and the “size of the tumorspheres” value [8] was “significantly reduced”. The “reduction of the number of tumorspheres” value ([8]; 5 μM and 10 μM) was 90%, the “proportion of ALDH-positive lung cancer cells” value (A549 cells [9]) was “reduced” and the “expression of C-myc” value (C-myc) was “reduced”. For the same compound, the “expression of Nanog” value (Nanog) was “reduced”, the “expression of Snail” value (Snail) was “reduced” and the “expression of Sox2” value (Sox2) was “reduced”. For the same compound, the “growth of tumorspheres (number of survived cancer cells)” value (tumorspheres) was “inhibited”.
